According to PubChem BioAssay AID2060494 (Molecular Pharmacology Branch, DTP, NCI, 2025):

System: 435261-313-R-J1-PDC complex spheroid viability
Experiment: Anticancer human tumor 435261-313-R-J1-PDC patient-derived colon adenocarcinoma cell line growth inhibition [GQUAD]
Conditions: for IC50: curve of first compound; for viability, T/C: stronger effect = lower value
Method in brief: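 Tumor cells were grown as complex spheroids with HUVEC endothelial cells and mesenchymal stem cells as stroma. G-quadruplex stabilizers were combined with targeted agents over half-log dilutions from near the clinical Cmax, or from 10 microM.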

[1] = second compound 0.0316 µM, first compound 0.0316 µM
[2] = second compound 0.0316 µM, first compound 0.1 µM
[3] = second compound 0.0316 µM, first compound 0.316 µM
[4] = second compound 0.0316 µM, first compound 1 µM
[5] = second compound 0.0316 µM, first compound 3.16 µM
[6] = second compound 0.0316 µM, first compound 10 µM
[7] = second compound 0.1 µM, first compound 0.0316 µM
[8] = second compound 0.1 µM, first compound 0.1 µM
[9] = second compound 0.1 µM, first compound 0.316 µM
[10] = second compound 0.1 µM, first compound 1 µM
[11] = second compound 0.1 µM, first compound 3.16 µM
[12] = second compound 0.1 µM, first compound 10 µM
[13] = second compound 0.316 µM, first compound 0.0316 µM
[14] = second compound 0.316 µM, first compound 0.1 µM
[15] = second compound 0.316 µM, first compound 0.316 µM
[16] = second compound 0.316 µM, first compound 1 µM
[17] = second compound 0.316 µM, first compound 3.16 µM
[18] = second compound 0.316 µM, first compound 10 µM
[19] = second compound 1 µM, first compound 0.0316 µM
[20] = second compound 1 µM, first compound 0.1 µM
[21] = second compound 1 µM, first compound 0.316 µM
[22] = second compound 1 µM, first compound 1 µM
[23] = second compound 1 µM, first compound 3.16 µM
[24] = second compound 1 µM, first compound 10 µM
[25] = second compound 3.16 µM, first compound 0.0316 µM
[26] = second compound 3.16 µM, first compound 0.1 µM
[27] = second compound 3.16 µM, first compound 0.316 µM
[28] = second compound 3.16 µM, first compound 1 µM
[29] = second compound 3.16 µM, first compound 3.16 µM
[30] = second compound 3.16 µM, first compound 10 µM
[31] = second compound 10 µM, first compound 0.0316 µM
[32] = second compound 10 µM, first compound 0.1 µM
[33] = second compound 10 µM, first compound 0.316 µM
[34] = second compound 10 µM, first compound 1 µM
[35] = second compound 10 µM, first compound 3.16 µM
[36] = second compound 10 µM, first compound 10 µM
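Also: spheroids exposed to the agents for seven days before readout.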
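For viability, T/C in this document: percent of vehicle control viability with DMSO wells as 100%.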

Q: Which results are given for `CC1COCCN1c1cc(C2(S(C)(=N)=O)CC2)nc(-c2ccnc3[nH]ccc23)n1` (stereo unspecified) + CN(C)c1ccc(Nc2c3ccc(NC(=O)CCN4CCCC4)cc3nc3cc(NC(=O)CCN4CCCC4)ccc23)cc1?
A: IC50 (second compound 0.0316 µM): > 10000 nM; IC50 (second compound 0.1 µM): > 10000 nM; IC50 (second compound 0.316 µM): > 10000 nM; IC50 (second compound 1 µM): > 10000 nM; IC50 (second compound 3.16 µM): > 10000 nM; IC50 (second compound 10 µM): 88.3 nM; viability, T/C [1]: 153%; viability, T/C [2]: 99.2%; viability, T/C [3]: 71.8%; viability, T/C [4]: 98%; viability, T/C [5]: 69.2%; viability, T/C [6]: 70.7%; viability, T/C [7]: 88.2%; viability, T/C [8]: 96.2%; viability, T/C [9]: 106%; viability, T/C [10]: 79.1%; viability, T/C [11]: 76.7%; viability, T/C [12]: 51.8%; viability, T/C [13]: 89.4%; viability, T/C [14]: 101%; viability, T/C [15]: 89.8%; viability, T/C [16]: 68.6%; viability, T/C [17]: 64.6%; viability, T/C [18]: 53.7%; viability, T/C [19]: 109%; viability, T/C [20]: 115%; viability, T/C [21]: 87.6%; viability, T/C [22]: 81.4%; viability, T/C [23]: 79%; viability, T/C [24]: 51.2%; viability, T/C [25]: 61.1%; viability, T/C [26]: 55.8%; viability, T/C [27]: 68.3%; viability, T/C [28]: 76.2%; viability, T/C [29]: 50.6%; viability, T/C [30]: 45.3%; viability, T/C [31]: 55.3%; viability, T/C [32]: 50.3%; viability, T/C [33]: 32.9%; viability, T/C [34]: 23.8%; viability, T/C [35]: 22.6%; viability, T/C [36]: 17%

Q: Which results are given for `O=C(c1cc(Cc2n[nH]c(=O)c3ccccc23)ccc1F)N1CCN(C(=O)C2CC2)CC1` + Cc1cnc(CNC(=O)c2c(=O)c3ccc(N4CCCN(C)CC4)nc3n3c2sc2ccccc23)cn1?
A: IC50 (second compound 0.0316 µM): > 10000 nM; IC50 (second compound 0.1 µM): > 10000 nM; IC50 (second compound 0.316 µM): > 10000 nM; IC50 (second compound 1 µM): < 31.6 nM; IC50 (second compound 3.16 µM): < 31.6 nM; IC50 (second compound 10 µM): < 31.6 nM; viability, T/C [1]: 76%; viability, T/C [2]: 60.9%; viability, T/C [3]: 66.3%; viability, T/C [4]: 68.2%; viability, T/C [5]: 84%; viability, T/C [6]: 77.7%; viability, T/C [7]: 65.2%; viability, T/C [8]: 65.1%; viability, T/C [9]: 58.3%; viability, T/C [10]: 62%; viability, T/C [11]: 64%; viability, T/C [12]: 62.1%; viability, T/C [13]: 59.4%; viability, T/C [14]: 53.8%; viability, T/C [15]: 58.7%; viability, T/C [16]: 59.6%; viability, T/C [17]: 53%; viability, T/C [18]: 52.2%; viability, T/C [19]: 38.6%; viability, T/C [20]: 45.9%; viability, T/C [21]: 38.1%; viability, T/C [22]: 42.7%; viability, T/C [23]: 55.9%; viability, T/C [24]: 37.6%; viability, T/C [25]: 26.4%; viability, T/C [26]: 9.89%; viability, T/C [27]: 25.5%; viability, T/C [28]: 15.3%; viability, T/C [29]: 27.3%; viability, T/C [30]: 20.5%; viability, T/C [31]: 0.23%; viability, T/C [32]: 0.23%; viability, T/C [33]: 0.21%; viability, T/C [34]: 0.23%; viability, T/C [35]: 0.22%; viability, T/C [36]: 0.23%

Q: For `CC[C@@]1(O)C(=O)OCc2c1cc1n(c2=O)Cc2cc3c(CN(C)C)c(O)ccc3nc2-1` + Cc1cnc(CNC(=O)c2c(=O)c3ccc(N4CCCN(C)CC4)nc3n3c2sc2ccccc23)cn1, which IC50 (second compound 0.0316 µM) is on record?
A: > 316 nM

Q: And the IC50 (second compound 0.1 µM)?
A: > 316 nM

Q: And the IC50 (second compound 0.316 µM)?
A: 113 nM

Q: And the IC50 (second compound 1 µM)?
A: < 0.999 nM

Q: And the IC50 (second compound 3.16 µM)?
A: < 0.999 nM

Q: And the IC50 (second compound 10 µM)?
A: < 0.999 nM

Q: And the viability, T/C (second compound 0.0316 µM, first compound 0.000999 µM)?
A: 66.6%

Q: And the viability, T/C (second compound 0.0316 µM, first compound 0.00316 µM)?
A: 63%

Q: What about the viability, T/C (second compound 0.0316 µM, first compound 0.00999 µM) of the same molecule?
A: 73%

Q: And the viability, T/C [1]?
A: 53%

Q: And the viability, T/C (second compound 0.0316 µM, first compound 0.0999 µM)?
A: 60.6%

Q: What about the viability, T/C [3] of the same molecule?
A: 72.1%

Q: What about the viability, T/C (second compound 0.1 µM, first compound 0.000999 µM) of the same molecule?
A: 57.3%

Q: And the viability, T/C (second compound 0.1 µM, first compound 0.00316 µM)?
A: 69%

Q: What about the viability, T/C (second compound 0.1 µM, first compound 0.00999 µM) of the same molecule?
A: 58.7%

Q: What about the viability, T/C [7] of the same molecule?
A: 50.9%

Q: What about the viability, T/C (second compound 0.1 µM, first compound 0.0999 µM) of the same molecule?
A: 63.2%

Q: And the viability, T/C [9]?
A: 53.4%

Q: What about the viability, T/C (second compound 0.316 µM, first compound 0.000999 µM) of the same molecule?
A: 53.1%

Q: And the viability, T/C (second compound 0.316 µM, first compound 0.00316 µM)?
A: 59.2%

Q: What about the viability, T/C (second compound 0.316 µM, first compound 0.00999 µM) of the same molecule?
A: 50.5%

Q: What about the viability, T/C [13] of the same molecule?
A: 55.8%

Q: And the viability, T/C (second compound 0.316 µM, first compound 0.0999 µM)?
A: 46.2%

Q: What about the viability, T/C [15] of the same molecule?
A: 49.3%

Q: What about the viability, T/C (second compound 1 µM, first compound 0.000999 µM) of the same molecule?
A: 31.9%

Q: And the viability, T/C (second compound 1 µM, first compound 0.00316 µM)?
A: 48.8%

Q: And the viability, T/C (second compound 1 µM, first compound 0.00999 µM)?
A: 35.2%

Q: And the viability, T/C [19]?
A: 43.4%

Q: What about the viability, T/C (second compound 1 µM, first compound 0.0999 µM) of the same molecule?
A: 47.6%

Q: What about the viability, T/C [21] of the same molecule?
A: 34.1%

Q: What about the viability, T/C (second compound 3.16 µM, first compound 0.000999 µM) of the same molecule?
A: 16.9%

Q: What about the viability, T/C (second compound 3.16 µM, first compound 0.00316 µM) of the same molecule?
A: 20.2%

Q: What about the viability, T/C (second compound 3.16 µM, first compound 0.00999 µM) of the same molecule?
A: 21.8%

Q: And the viability, T/C [25]?
A: 16%

Q: What about the viability, T/C (second compound 3.16 µM, first compound 0.0999 µM) of the same molecule?
A: 12.1%

Q: And the viability, T/C [27]?
A: 8.56%

Q: What about the viability, T/C (second compound 10 µM, first compound 0.000999 µM) of the same molecule?
A: 0.19%

Q: And the viability, T/C (second compound 10 µM, first compound 0.00316 µM)?
A: 0.19%

Q: And the viability, T/C (second compound 10 µM, first compound 0.00999 µM)?
A: 0.22%

Q: And the viability, T/C [31]?
A: 0.23%

Q: What about the viability, T/C (second compound 10 µM, first compound 0.0999 µM) of the same molecule?
A: 0.23%

Q: And the viability, T/C [33]?
A: 0.22%
